The source of these data is article PMC6248945, “Antibacterial properties of the pituitary adenylate cyclase-activating polypeptide: A new human antimicrobial peptide” (PLoS ONE, 2018).

The test system of series [1] is DPP-IV. On the set-up: method as in PMID 18353507. Conditions: cited from earlier work.
Series [2] has as its system Burkholderia thailendensis (ATCC700388). The settings on record: CLSI microdilution, MHB, 37 °C, 20h, OD read-out; at least triplicate.
Series [3] has as its system Bacillus subtilis (2597). Conditions: 2597, 20 h.
Series [4] relates to Staphylococcus aureus (ATCC6538#P). Conditions: ATCC6538, 20 h.
Series [5] concerns Bacillus cereus (ATCC11778). Conditions: ATCC11778, 20 h.
For series [6], the system named is Pseudomonas aeruginosa (ATCC33350-Sero-2). The settings on record: ATCC33350, 20 h.
In series [7] the test system is Burkholderia cenocepacia (J2315). The settings on record: 20 h.
Series [8] deals with Bacillus velezensis. The settings on record: 20 h.
The test system of series [9] is Escherichia coli (JM109). Description: MIC, CLSI microdilution. In kind it is cell-based. The settings on record: MHB, 37 °C, 20h, OD read-out, at least triplicate. The method, then: Assays were performed according to the CLSI microdilution method. Briefly, the bacterial strains were inoculated and allowed to reach an OD600 of 0.08–0.13 prior to dilution to 10^6 CFU/mL in Mueller-Hinton broth (MHB). A bacterial suspension (50 μL) was then added to each well of a 96-well microplate containing serially diluted peptide solutions (50 μL in MHB) and incubated at 37 °C for 20h. A well containing sterilized medium was used as a sterility control and another well containing no added peptide served as a growth control.

The test system of series [10] is Bacillus amyloliquefaciens (LMG22478). Conditions: LMG22478, 20 h.
Series [11] relates to Serratia marcescens (ATCC14756). Conditions: ATCC14756, 20 h.
For series [12], the system named is Burkholderia cenocepacia (K56-2). Conditions: 20 h.
Series [13] deals with Escherichia coli ATCC25922. Conditions: ATCC25922, 20 h.
Series [14] deals with Pseudomonas aeruginosa (PA14). Conditions: PA14, 20 h.
Series [15] has as its system Bacillus circulans (LSPQ3543). The settings on record: 20 h.
For series [16], the system named is Burkholderia cenocepacia (LMG19240). Conditions: CLSI microdilution, MHB, 37 °C, 20h, OD read-out; at least triplicate.
In series [17] the test system is Pseudomonas putida (KT2440). The settings on record: 20 h.
The test system of series [18] is Actinobacillus pleuropneumoniae (4074). The settings on record: 20 h.
The subject of series [19] is Bacillus subtilis (PY79). Conditions: PY79, 20 h.
The conditions of series [20]: relative to PACAP38; cited from earlier work.
Series [21] deals with Burkholderia cenocepacia (LMG18829). Conditions: LMG18829, 20 h.
The test system of series [22] is Escherichia coli (O157 :H7). Conditions: CLSI microdilution, MHB, 37 °C, 20h, OD read-out; at least triplicate.
In series [23] the test system is Staphylococcus aureus (Newman). Conditions: 20 h.
For series [24], the system named is Burkholderia cenocepacia (CEP0511 Gvar3b). Conditions: CLSI microdilution, MHB, 37 °C, 20h, OD read-out; at least triplicate.
Series [25] deals with Pseudomonas fluorescens (MF37). Conditions: 20 h.

Converted amounts (≈) assume the structure as drawn. Where a SMILES comes first, the peptide text is derived from it. [ ]: non-standard residue; d: D form. Tic = O=C(O)[C@@H]1Cc2ccccc2CN1

In the case of `CCCCCC(=O)N[C@@H](Cc1c[nH]cn1)C(=O)N[C@@H](CO)C(=O)N[C@@H](CC(=O)O)C(=O)NCC(=O)N[C@H](C(=O)N[C@@H](Cc1ccccc1)C(=O)N[C@H](C(=O)N[C@@H](CC(=O)O)C(=O)N[C@@H](CO)C(=O)N[C@@H](Cc1ccc(O)cc1)C(=O)N[C@@H](CO)C(=O)N[C@@H](CCCNC(=N)N)C(=O)N[C@@H](Cc1ccc(O)cc1)C(=O)N[C@@H](CCCNC(=N)N)C(=O)N[C@@H](CCCCN)C(=O)N[C@@H](CCC(N)=O)C(=O)N[C@@H](CCSC)C(=O)N[C@@H](C)C(=O)N[C@H](C(=O)N[C@@H](CCCCN)C(=O)N[C@@H](CCCCN)C(=O)N[C@@H](Cc1ccc(O)cc1)C(=O)N[C@@H](CC(C)C)C(=O)N[C@@H](C)C(=O)N[C@@H](C)C(=O)N[C@H](C(=O)N[C@@H](CC(C)C)C(=O)NCC(=O)N[C@@H](CCCCN)C(=O)N[C@@H](CCCNC(=N)N)C(=O)N[C@@H](Cc1ccc(O)cc1)C(=O)N[C@@H](CCCCN)C(=O)N[C@@H](CCC(N)=O)C(=O)N[C@@H](CCCNC(=N)N)C(=O)N[C@H](C(=O)N[C@@H](CCCCN)C(=O)N[C@@H](CC(N)=O)C(=O)N[C@@H](CCCCN)C(N)=O)C(C)C)C(C)C)C(C)C)[C@@H](C)O)[C@@H](C)CC` [compound 2, N-hexanoyl-PACAP38], the “Metabolic stability against DPP-IV” value in [1] is “improved metabolic stability”. In addition, the “MIC, Burkholderia thailendensis (ATCC700388)” value in series [2] is greater than 200 µg/mL. The “MIC, Bacillus subtilis (2597)” value in series [3] worked out at 154 µg/mL (≈ 33.2 µM). Also, the “MIC, Staphylococcus aureus (ATCC6538#P)” value in [4] was greater than 200 µg/mL. Moreover, the “MIC, Bacillus cereus (ATCC11778)” value in series [5] was greater than 200 µg/mL. In addition, the “MIC, Pseudomonas aeruginosa (ATCC33350-Sero-2)” value in series [6] was greater than 200 µg/mL. Moreover, the “MIC, Burkholderia cenocepacia (J2315)” value in series [7] amounted to 10 µg/mL (≈ 2.16 µM). In addition, the “MIC, Bacillus velezensis” value in series [8] was 87 µg/mL (≈ 18.8 µM). The “MIC, Escherichia coli (JM109)” value in series [9] turned out to be 116 µg/mL (≈ 25 µM). In addition, the “MIC, Bacillus amyloliquefaciens” value in series [10] amounted to 26 µg/mL (≈ 5.61 µM). For the same molecule, the “MIC, Serratia marcescens (ATCC14756)” value in series [11] is greater than 200 µg/mL. Further, the “MIC, Burkholderia cenocepacia (K56-2)” value in series [12] is greater than 200 µg/mL. Also, the “MIC, Escherichia coli ATCC25922” value in series [13] is greater than 200 µg/mL. For the same molecule, in series [14], the “MIC, Pseudomonas aeruginosa (PA14)” value was greater than 200 µg/mL. For the same molecule, in series [15], the “MIC, Bacillus circulans (LSPQ3543)” value turned out to be 58 µg/mL (≈ 12.5 µM). Moreover, in [16], the “MIC, Burkholderia cenocepacia (LMG19240)” value is greater than 200 µg/mL. Besides, the “MIC, Pseudomonas putida (KT2440)” value in series [17] was 77 µg/mL (≈ 16.6 µM). Besides, in series [18], the “MIC, Actinobacillus pleuropneumoniae” value is 232 µg/mL (≈ 50.1 µM). Also, the “MIC, Bacillus subtilis (PY79)” value in [19] was 12 µg/mL (≈ 2.59 µM). For the same molecule, the “Metabolic stability in human plasma” value in series [20] is recorded as “improved metabolic stability”. The “MIC, Burkholderia cenocepacia (LMG18829)” value in series [21] was greater than 200 µg/mL. The “MIC, Escherichia coli (O157 :H7)” value in series [22] is greater than 200 µg/mL. Besides, the “MIC, Staphylococcus aureus (Newman)” value in series [23] was greater than 200 µg/mL. Further, the “MIC, Burkholderia cenocepacia (CEP0511 Gvar3b)” value in [24] is greater than 200 µg/mL. The “MIC, Pseudomonas fluorescens (MF37)” value in [25] was greater than 200 µg/mL.
As to `CC[C@H](C)[C@H](NC(=O)CNC(=O)[C@H](CC(=O)O)NC(=O)[C@H](CO)NC(=O)[C@@H](N)Cc1c[nH]cn1)C(=O)N1Cc2ccccc2C[C@H]1C(=O)N[C@H](C(=O)N[C@@H](CC(=O)O)C(=O)N[C@@H](CO)C(=O)N[C@@H](Cc1ccc(O)cc1)C(=O)N[C@@H](CO)C(=O)N[C@@H](CCCNC(=N)N)C(=O)N[C@@H](Cc1ccc(O)cc1)C(=O)N[C@@H](CCCNC(=N)N)C(=O)N[C@@H](CCCCN)C(=O)N[C@@H](CCC(N)=O)C(=O)N[C@@H](CCSC)C(=O)N[C@@H](C)C(=O)N[C@H](C(=O)N[C@@H](CCCCN)C(=O)N[C@@H](CCCCN)C(=O)N[C@@H](Cc1ccc(O)cc1)C(=O)N[C@@H](CC(C)C)C(=O)N[C@@H](C)C(=O)N[C@@H](C)C(=O)N[C@H](C(=O)N[C@@H](CC(C)C)C(=O)NCC(=O)N[C@@H](CCCCN)C(=O)N[C@@H](CCCNC(=N)N)C(=O)N[C@@H](Cc1ccc(O)cc1)C(=O)N[C@@H](CCCCN)C(=O)N[C@@H](CCC(N)=O)C(=O)N[C@@H](CCCNC(=N)N)C(=O)N[C@H](C(=O)N[C@@H](CCCCN)C(=O)N[C@@H](CC(N)=O)C(=O)N[C@@H](CCCCN)C(N)=O)C(C)C)C(C)C)C(C)C)[C@@H](C)O` [compound 7, [Tic^6]PACAP38] (H-HSDGI[Tic]TDSYSRYRKQMAVKKYLAAVLGKRYKQRVKNK-NH2), the “MIC, Burkholderia thailendensis (ATCC700388)” value in series [2] was greater than 200 µg/mL. Besides, the “MIC, Bacillus subtilis (2597)” value in series [3] was greater than 200 µg/mL. In addition, in [4], the “MIC, Staphylococcus aureus (ATCC6538#P)” value is greater than 200 µg/mL. The “MIC, Bacillus cereus (ATCC11778)” value in series [5] was greater than 200 µg/mL. Further, in [6], the “MIC, Pseudomonas aeruginosa (ATCC33350-Sero-2)” value is greater than 200 µg/mL. Also, the “MIC, Burkholderia cenocepacia (J2315)” value in series [7] was determined as 2 µg/mL (≈ 0.44 µM). Moreover, the “MIC, Bacillus velezensis” value in series [8] is 71 µg/mL (≈ 15.6 µM). For the same molecule, the “MIC, Escherichia coli (JM109)” value in series [9] is greater than 200 µg/mL. The “MIC, Bacillus amyloliquefaciens” value in series [10] was determined as 21 µg/mL (≈ 4.62 µM). In series [11], the “MIC, Serratia marcescens (ATCC14756)” value was greater than 200 µg/mL. In addition, the “MIC, Burkholderia cenocepacia (K56-2)” value in series [12] is greater than 200 µg/mL. Further, in series [13], the “MIC, Escherichia coli ATCC25922” value was greater than 200 µg/mL. Besides, the “MIC, Pseudomonas aeruginosa (PA14)” value in [14] is greater than 200 µg/mL. The “MIC, Bacillus circulans (LSPQ3543)” value in [15] turned out to be 6 µg/mL (≈ 1.32 µM). Further, in series [16], the “MIC, Burkholderia cenocepacia (LMG19240)” value was greater than 200 µg/mL. The “MIC, Pseudomonas putida (KT2440)” value in [17] stood at 33 µg/mL (≈ 7.26 µM). Besides, the “MIC, Actinobacillus pleuropneumoniae” value in series [18] is greater than 200 µg/mL. Moreover, the “MIC, Bacillus subtilis (PY79)” value in series [19] came to 7 µg/mL (≈ 1.54 µM). For the same molecule, the “MIC, Burkholderia cenocepacia (LMG18829)” value in [21] was greater than 200 µg/mL. The “MIC, Escherichia coli (O157 :H7)” value in series [22] was greater than 200 µg/mL. Also, in series [23], the “MIC, Staphylococcus aureus (Newman)” value is greater than 200 µg/mL. Moreover, the “MIC, Burkholderia cenocepacia (CEP0511 Gvar3b)” value in series [24] is greater than 200 µg/mL. Moreover, in [25], the “MIC, Pseudomonas fluorescens (MF37)” value was greater than 200 µg/mL.
`CSCC[C@H](NC(=O)[C@H](CCC(N)=O)NC(=O)[C@H](CCCCN)NC(=O)[C@H](CCCNC(=N)N)NC(=O)[C@H](Cc1ccc(O)cc1)NC(=O)[C@H](CCCNC(=N)N)NC(=O)[C@H](CO)NC(=O)[C@H](Cc1ccc(O)cc1)NC(=O)[C@@H](N)CO)C(=O)N[C@@H](C)C(=O)N[C@H](C(=O)N[C@@H](CCCCN)C(=O)N[C@@H](CCCCN)C(=O)N[C@@H](Cc1ccc(O)cc1)C(=O)N[C@@H](CC(C)C)C(=O)N[C@@H](C)C(=O)N[C@@H](C)C(=O)N[C@H](C(=O)N[C@@H](CC(C)C)C(=O)NCC(=O)N[C@@H](CCCCN)C(=O)N[C@@H](CCCNC(=N)N)C(=O)N[C@@H](Cc1ccc(O)cc1)C(=O)N[C@@H](CCCCN)C(=O)N[C@@H](CCC(N)=O)C(=O)N[C@@H](CCCNC(=N)N)C(=O)N[C@H](C(=O)N[C@@H](CCCCN)C(=O)N[C@@H](CC(N)=O)C(=O)N[C@@H](CCCCN)C(N)=O)C(C)C)C(C)C)C(C)C` [compound 10, PACAP(9–38)] (H-SYSRYRKQMAVKKYLAAVLGKRYKQRVKNK-NH2): the “MIC, Bacillus subtilis (2597)” value in [3] was greater than 183 µg/mL. The “MIC, Burkholderia cenocepacia (J2315)” value in series [7] was 19 µg/mL (≈ 5.19 µM). In addition, the “MIC, Escherichia coli (JM109)” value in [9] was greater than 183 µg/mL. Further, the “MIC, Bacillus amyloliquefaciens” value in series [10] is greater than 183 µg/mL. In [12], the “MIC, Burkholderia cenocepacia (K56-2)” value was greater than 183 µg/mL. For the same molecule, the “MIC, Pseudomonas putida (KT2440)” value in series [17] is greater than 183 µg/mL. Besides, the “MIC, Actinobacillus pleuropneumoniae” value in series [18] was greater than 183 µg/mL. The “MIC, Bacillus subtilis (PY79)” value in [19] was greater than 183 µg/mL.
